pIC50: −log10 of the molar value.

In one experiment the target is BRD4_BD1 bromodomain (Homo sapiens (Human), UniProt O60885). Nature of the experiment: BRD4 BD1 biochemical binding assay (TR-FRET). Particulars: displacement of biotinylated ligand Compound C. How it is done:
(§1) The following assay was used to measure the IC50 for the test compounds ability to bind to the BRD4_BD1 and BRD4_BD2 bromodomains.
(§2) DMSO was backfilled to a final volume of 30 nL as required. […] 1× Assay Buffer was dispensed (5 μL per well) into Minimum Signal control wells. 5 μL of Solution A-3× was dispensed into test wells and Maximum Signal control wells (containing DMSO instead of test compound). Samples were incubated 10 minutes at room temperature. 5 μL of Solution B-3x was dispensed into all wells. Samples were incubated incubate for 10 minutes at room temperature. 5 μL of Solution C-3x was dispensed into all wells. Samples were incubated 40 minutes at room temperature. Plates were read using an Envision (Perkin Elmer) with the following settings: Detection—LANCE Dual Laser 50/200. […] Percentage inhibition was calculated relative to the Minimum Signal control and Maximum Signal control wells. IC50 values were derived by four parameter curve fitting using the Robust method.
A general note: TR-FRET usually uses a lanthanide donor and a delayed reading to cut background.

The next experiment deals with BRD4_BD2 bromodomain (Homo sapiens (Human), UniProt O60885). Nature of the experiment: BRD4 BD2 biochemical binding assay (TR-FRET). The following applies: displacement of biotinylated ligand Compound C. How it is done: as §1, §2
For the next experiment, the system named is MYC expression. Nature of the experiment: Myc mRNA assay in MV-4-11 cells. The format is cell-based. Particulars: for Maximum Inhibition (%) (mean) of MYC expression: 4 hours, QuantiGene 2.0; for pIC50: Homo sapiens, MV4-11, 4 hours, QuantiGene 2.0, read-out: Inhibition of MYC expression Average IC50. How it is done:
Pharmacologic inhibition of MYC is achievable through targeting BET bromodomains through small molecule binder or degrader mechanisms.
Test compounds diluted in DMSO were transferred to the cell plates, keeping final DMSO concentration consistent at 0.1%, and incubated for 4 hours at 37° C. […] Luminescence was read using an EnVision plate reader (PerkinElmer) and IC50s generated in Genedata Screener using a 4-parameter non-linear regression fit.

For experiment [1], the target named is T1, BRD4 (Homo sapiens (Human), UniProt O60885). Briefly: BRD4 degradation assay in EoL-1 cells. Format: cell-based. The following applies: for DC50: 4 hours, immunofluorescence, read-out: Degradation of BRD4 Average EC50; for Dmax: EOL1, 4 hours, complete loss = −100%, read-out: Sinf (maximum degradation, percent change in protein level). How it is done: 2 μL of each sample from the serial dilution was transferred to 98 μL of assay media as an intermediate dilution. 5 μL of each well of the intermediate dilution was added to 45 μL of cell plate. Columns 1, 2, 23 and 24 were treated with only 0.2% final concentration of DMSO for data normalization as “neutral controls”. After compound treatment, cell plates were stored in a 37° C. incubator for 4 hours.
The cell plate was incubated at room temperature for 20 minutes. Well contents were aspirated and washed with 100 μL/well PBS 3 times. 50 μL/well of PBS (pH7.5) containing 0.5% w/v bovine serum albumen, 0.5% w/v Triton X-100 (Block/Permeabilzation Buffer) was added to each well. Samples were incubated for 20 minutes. Well contents were aspirated and washed 3 times with 100 μL/well of PBS. PBS was aspirated from the well and 50 μL per well of EoL-1 Block Buffer (PBS containing 10% Normal Goat Serum (Abcam #ab7481)) was added to each well. Plates were incubated at room temperature for 30 minutes. Block buffer was decanted from the wells.
25 μL per well of BRD4 antibody diluted in buffer was added and incubated overnight at 4° C. On day-2 samples were washed 3 times with 100 μL/well of PBS. […] Samples were incubated for 2 hours at room temperature. Samples were washed 3 times with 100 μL PBS.
(§3) Quantitative fluorescence imaging of BRD4 was carried out using an Opera Phenix High-Content Screening System. […] Hoechst channel was used to identify nuclear region. […] Data analysis was carried out using Genedata Screener, with DMSO and no primary antibody control treated samples being used to define the 0% and 100% changes in BRD4. The dose-response log(inhibitor) vs. response was used to define the inflexion point of curve (IC50) and the plateau of the maximal effect. The Sinf value reports degradation as percent change in protein level, so complete loss of the protein target is −100%. Sinf is the maximum degradation achieved, obtained by determining the bottom of a dose-response (where the S-shaped curve levels out).

Experiment [2] has as its target T1, BRD4. Briefly: BRD4 degradation assay in PC3-Steap1 cells. The format is cell-based. The following applies: 4 hours; for Dmax: complete loss = −100%, read-out: Sinf (maximum degradation, percent change in protein level); for DC50: immunofluorescence, read-out: Degradation of BRD4 Average EC50. How it is done: 2 μL of each sample from the serial dilution was transferred to 98 μL of assay media as an intermediate dilution. 5 μL of intermediate dilution was added to 45 μL of cell plate. Columns 1, 2, 23 and 24 were treated with only 0.2% w/v final concentration of DMSO for data normalization as “neutral controls”. After compound treatment, cell plates were stored in a 37° C. incubator for 4 hours.
Cell plate was incubated at room temperature for 20 minutes. Well contents were aspirated and washed with 100 μL/well PBS 3 times. 50 μL/well of PBS containing 0.5% w/v bovine serum albumen, 0.5% w/v Triton X-100 (Antibody Dilution Buffer) was added to each well. Samples were incubated for 30 minutes. Well contents were aspirated and washed 3 times with 100 μL/well of PBS. PBS was aspirated from the wells.
25 μL per well of BRD4 antibody diluted in buffer was added and incubated overnight at 4° C. On day-3 samples were washed 3 times with 100 μL/well of PBS. […] Samples were incubated for 2 hours at room temperature. Samples were washed 3 times with 100 μL PBS.
as §3, with “The […]” for “The Sinf”

In general, pIC50 refers to the IC50 on a negative log10 scale, so that one unit is a factor of ten. For the compound `Cc1sc2c(c1C)C(c1ccc(C#CCN)cc1)=N[C@@H](CC(=O)OC(C)(C)C)c1nnc(C)n1-2` [Compound 1a, tert-butyl (S)-2-(4-(4-(3-aminoprop-1-yn-1-yl)phenyl)-2,3,9-trimethyl-6H-thieno[3,2-f][1,2,4]triazolo[4,3-a][1,4]diazepin-6-yl)acetate], the pIC50 was 7.81 at BRD4_BD1 bromodomain, 7.91 at BRD4_BD2 bromodomain and 8.54 in the experiment on MYC expression. For the same compound, the “Maximum Inhibition (%) (mean) of MYC expression” value (“Maximum Inhibition (%) (mean)” for short) in the experiment with MYC expression was 89.1%. Moreover, the DC50 on BRD4 [1] worked out at 0.0013 µM; at BRD4 [2], 0.0014 µM. Moreover, the Dmax at BRD4 [1] was -83.8%; at BRD4 [2], -84.6%.

On to `Cc1sc2c(c1C)C(c1ccc(C#CCCN)cc1)=N[C@@H](CC(=O)OC(C)(C)C)c1nnc(C)n1-2` [Compound 4a, tert-butyl (S)-2-(4-(4-(4-aminobut-1-yn-1-yl)phenyl)-2,3,9-trimethyl-6H-thieno[3,2-f][1,2,4]triazolo[4,3-a][1,4]diazepin-6-yl)acetate], for which the pIC50 on BRD4_BD1 bromodomain is 7.89; on BRD4_BD2 bromodomain, 7.75; with MYC expression, 7.70. Besides, the “Maximum Inhibition (%) (mean)” value in the experiment with MYC expression turned out to be 79.4%. Moreover, the Dmax on BRD4 [2] was -54.7%. Also, the DC50 on BRD4 [2] was 0.0034 µM.

With `Cc1sc2c(c1C)C(c1ccc(C#CCNC(=N)N)cc1)=N[C@@H](CC(=O)OC(C)(C)C)c1nnc(C)n1-2` [Compound 5a, tert-butyl (S)-2-(4-(4-(3-guanidinoprop-1-yn-1-yl)phenyl)-2,3,9-trimethyl-6H-thieno[3,2-f][1,2,4]triazolo[4,3-a][1,4]diazepin-6-yl)acetate], the pIC50 at BRD4_BD1 bromodomain was 8.14; at BRD4_BD2 bromodomain, 8.07; with MYC expression it was 6.91. Also, the “Maximum Inhibition (%) (mean)” value with MYC expression was 87.6%. On BRD4 [2], the Dmax is -86%. Moreover, at BRD4 [2], the DC50 is 0.101 µM.

`Cc1sc2c(c1C)C(c1ccc(/C=C/CN)cc1)=N[C@@H](CC(=O)OC(C)(C)C)c1nnc(C)n1-2` [Compound 6a, tert-butyl (S,E)-2-(4-(4-(3-aminoprop-1-en-1-yl)phenyl)-2,3,9-trimethyl-6H-thieno[3,2-f][1,2,4]triazolo[4,3-a][1,4]diazepin-6-yl)acetate]: in the experiment with MYC expression, the “Maximum Inhibition (%) (mean)” value was 88.4% and the negative-log IC50 (pIC50) was 8.70. Besides, the Dmax on BRD4 [1] was -77.9%. Also, the Dmax on BRD4 [2] was -73.1%.

For the compound `Cc1sc2c(c1C)C(c1ccc(C#CCO)cc1)=N[C@@H](CC(=O)OC(C)(C)C)c1nnc(C)n1-2` [Compound 7a, tert-butyl (S)-2-(4-(4-(3-hydroxyprop-1-yn-1-yl)phenyl)-2,3,9-trimethyl-6H-thieno[3,2-f][1,2,4]triazolo[4,3-a][1,4]diazepin-6-yl)acetate], the pIC50 on BRD4_BD1 bromodomain is 7.75; at BRD4_BD2 bromodomain, 7.99; with MYC expression it was 7.59. Also, the “Maximum Inhibition (%) (mean)” value in the experiment with MYC expression came to 72.9%. For the same compound, on BRD4 [2], the DC50 is greater than 20 µM.

Turning to `Cc1sc2c(c1C)C(c1ccc(C#CCNO)cc1)=N[C@@H](CC(=O)OC(C)(C)C)c1nnc(C)n1-2` [Compound 8a, tert-butyl (S)-2-(4-(4-(3-(hydroxyamino)prop-1-yn-1-yl)phenyl)-2,3,9-trimethyl-6H-thieno[3,2-f][1,2,4]triazolo[4,3-a][1,4]diazepin-6-yl)acetate], the “Maximum Inhibition (%) (mean)” value with MYC expression is 95.1%. In the experiment on MYC expression, the pIC50 is 8.14. Also, the Dmax was -92.2% at BRD4 [1] and -92.6% on BRD4 [2].

On to `Cc1sc2c(c1C)C(c1ccc(CCCN)cc1)=N[C@@H](CC(=O)OC(C)(C)C)c1nnc(C)n1-2` [Compound 9a, tert-butyl (S)-2-(4-(4-(3-aminopropyl)phenyl)-2,3,9-trimethyl-6H-thieno[3,2-f][1,2,4]triazolo[4,3-a][1,4]diazepin-6-yl)acetate], for which, in the experiment with MYC expression, the “Maximum Inhibition (%) (mean)” value was 78.1% and the pIC50 is 7.56. Moreover, the Dmax at BRD4 [2] is -57.6%.

On BRD4_BD1 bromodomain, `Cc1sc2c(c1C)C(c1ccc(C#CC(C)N)cc1)=N[C@@H](CC(=O)OC(C)(C)C)c1nnc(C)n1-2` (stereo partly drawn) [Compound 11a, tert-butyl 2-((6S)-4-(4-(3-aminobut-1-yn-1-yl)phenyl)-2,3,9-trimethyl-6H-thieno[3,2-f][1,2,4]triazolo[4,3-a][1,4]diazepin-6-yl)acetate] had a pIC50 of 7.85. The compound also gave a negative-log IC50 (pIC50) on BRD4_BD2 bromodomain of 7.97. For the same compound, in the experiment with MYC expression, the “Maximum Inhibition (%) (mean)” value came out at 72.5% and the pIC50 was 7.68. At BRD4 [2], the Dmax was -43.3% and the DC50 was greater than 20 µM.

On to `Cc1sc2c(c1C)C(c1ccc(C#CC(C)(C)N)cc1)=N[C@@H](CC(=O)OC(C)(C)C)c1nnc(C)n1-2` [Compound 12a, tert-butyl (S)-2-(4-(4-(3-amino-3-methylbut-1-yn-1-yl)phenyl)-2,3,9-trimethyl-6H-thieno[3,2-f][1,2,4]triazolo[4,3-a][1,4]diazepin-6-yl)acetate], for which, in the experiment on MYC expression, the “Maximum Inhibition (%) (mean)” value stood at 73.3% and the pIC50 was 7.90.

Turning to `COC(=O)c1cc2c(cc1CS(C)(=O)=O)-c1cn(C)c(=O)c3[nH]cc(c13)CN2c1ncc(C#CCN)cc1F` [Compound 15, methyl 4-(5-(3-aminoprop-1-yn-1-yl)-3-fluoropyridin-2-yl)-10-methyl-7-((methylsulfonyl)methyl)-11-oxo-3,4,10,11-tetrahydro-1H-1,4,10-triazadibenzo[cd,f]azulene-6-carboxylate], the “Maximum Inhibition (%) (mean)” value in the experiment with MYC expression was 75.7%. Besides, the pIC50 with MYC expression was 8.14. The DC50 on BRD4 [1] and at BRD4 [2] was greater than 20 µM throughout.

For the compound `Cc1sc2c(c1C)C(c1ccc(Cl)cc1)=N[C@@H](CC(=O)OC(C)(C)C)c1nnc(C)n1-2` [Compound A, tert-butyl (S)-2-(4-(4-chlorophenyl)-2,3,9-trimethyl-6H-thieno[3,2-f][1,2,4]triazolo[4,3-a][1,4]diazepin-6-yl)acetate, reference compound], in the experiment on MYC expression, the “Maximum Inhibition (%) (mean)” value is listed as 76.3% and the pIC50 is 7.08.

(Values after US20250084096A1, “TERT-BUTYL (S)-2-(4-(PHENYL)-6H-THIENO[3, 2-F][1, 2, 4]TRIAZOLO[4, 3-A] [1,4]DIAZEPIN-6-YL) ACETATE DERIVATIVES AND RELATED COMPOUNDS AS BROMODOMAIN BRD4 INHIBITORS FOR TREATING CANCER” (Genentech, Inc., priority 2018, published 2025).)
